Experiments:
pancreatic cancer cells = assay: Effect of autophagy inhibitors on autophagy and apoptosis of treated cells; assay type: cell-based
Text: We therefore tested whether inhibitors of autophagy or apoptosis could shift the cellular response from autophagy to apoptosis or vice versa.

[1] = test system: Xenograft tumors derived from BxPC3 cells; assay: BxPC3 xenograft tumor growth in nude mice (Biological Example 8A); assay type: in vivo; conditions: BxPC3 subcutaneous flank tumors in nude mice, once daily dosing, 30 days; FIG. 4A
Description: Whether autophagy inhibition increased the activity of Compound A in vivo was explored. Xenograft tumors derived from BxPC3 cells were grown subcutaneously as flank tumors in nude mice to a size of 150 mm^3. Treatment with Compound A, alone or in combination with choloroquine, was administered for 30 days. Treatment with Compound A along and Compound A in combination with chloroquine was carried out by once daily dosing as indicated. Tumor volume was measured regularly. Tumors were harvested from euthanized mice for protein expression analyses.

BxPC-3 cells = assay: BxPC-3 xenograft tumor growth in Nu/Nu mice (Biological Example 8B); assay type: in vivo; conditions: BxPC-3 s.c. in Nu/Nu mice; Compound A 30 mg/kg oral gavage, CQ 50 mg/kg i.p., 5 times/week, 28 days; FIG. 4B
Description: Female 7-9 weeks old Nu/Nu mice (Harlan, FoxN 1/nude) were inoculated s.c. with 10^7 BxPC-3 cells. Mice were monitored according to the protocol approved by the University of California, San Francisco Institutional Animal Care and Use Committee. When tumors reached about 100 mm^3, mice were randomly assigned to one of […] treatment groups: vehicle control, Compound A 30 mg/kg, Chloroquine (CQ) 50 mg/kg, Compound A+CQ. Compound A was solubilized in water/10 mM HCl, Compound B was dissolved in water, both drugs were administered by oral gavage once a day 5 times/week. CQ was dissolved in saline and injected i.p daily, 5 times/week. Each treatment regimen was tested in cohorts of eight mice and the dosing was continued for 28 days. Tumor sizes were measured twice weekly in two dimensions using a caliper, tumor size (mm^3) was calculated as (length×width^2)/2. Animals were monitored for toxicity by measuring body weight twice weekly and monitoring overall activity.
Dbata are expressed as means+/−standard deviation. Statistical analysis was performed by using Student's t-test (two-tailed). P values of <0.05 were considered significant.

PDAC cell lines = assay: Apoptosis induction in PDAC cell lines (PI/Annexin V, FACS); assay type: cell-based; conditions: representative subset of PDAC cell lines, dual staining with PI and Annexin V, FIG. 1
MiaPaCa2 cells [2] = assay: Induction of autophagy by acridine orange staining and FACS analysis; assay type: cell-based; conditions: FIG. 2B
Text: Occurrence of cytoplasmic vacuoles in tumor cells treated with dual-targeted inhibitors are consistently observed. […] A variety of assays, including LC3-I to LC3-II conversion, acridin orange supravital staining, and MDC staining indicate whether treatment of pancreatic cancer cells with a compound of the invention will induce autophagy.

MiaPaCa2 cells [3] = assay: Induction of apoptosis in MiaPaCa2 cells by FACS analysis; assay type: cell-based; conditions: 72 hours, FIG. 2A

What does the source list for `Cn1cnc(N)c2ncnc1-2` [Example 3-MA, 3-methyladenine]?
autophagy (pancreatic cancer cells; autophagy inhibitor added to cells treated with dual-targeted inhibitor, data not shown): inhibited autophagy; fraction of cells undergoing apoptosis (pancreatic cancer cells; autophagy inhibitor added, FIG. 3: Compound A with or without CQ 5 mM, 72 hours, PI/Annexin-V FACS): significantly increased

For `CCn1c(=O)c(-c2ccn[nH]2)cc2c(C)nc(N)nc21` [Compound A], which “tumor growth (tumor volume)” value [1] is on record?
Its value is “no clear growth-inhibitory effect”.

What about the “tumor growth (tumor size)” value (BxPC-3 cells) of the same molecule?
The value was “no clear growth-inhibitory effect”.

And the apoptosis induction (PDAC cell lines)?
The apoptosis induction was “apoptosis induction”.

And the induction of autophagy (MiaPaCa2 cells [2])?
The induction of autophagy was “induction of autophagy”.

And the induction of apoptosis (MiaPaCa2 cells [3])?
Its induction of apoptosis is “induction of apoptosis”.

From patent US8901137B2, “Methods of treating cancer using pyridopyrimidinone inhibitors of PI3K and mTOR in combination with autophagy inhibitors” (Exelixis, Inc., priority 2010, dated 2014)
